ChEMBL document CHEMBL1127504, “Synthesis and evaluation of 4-(2'-methoxyphenyl)-1-[2'-[N-(2"-pyridinyl)-p- iodobenzamido]ethyl]piperazine (p-MPPI): a new iodinated 5-HT1A ligand” (J Med Chem, 1994)
One block for each compound: values may come before it.

Legend:
[1] = target: T1, 5-hydroxytryptamine receptor 1A (Rattus norvegicus, UniProt P19327); format: tissue-based, Hippocampus
T1 sequence (P19327 whole entry): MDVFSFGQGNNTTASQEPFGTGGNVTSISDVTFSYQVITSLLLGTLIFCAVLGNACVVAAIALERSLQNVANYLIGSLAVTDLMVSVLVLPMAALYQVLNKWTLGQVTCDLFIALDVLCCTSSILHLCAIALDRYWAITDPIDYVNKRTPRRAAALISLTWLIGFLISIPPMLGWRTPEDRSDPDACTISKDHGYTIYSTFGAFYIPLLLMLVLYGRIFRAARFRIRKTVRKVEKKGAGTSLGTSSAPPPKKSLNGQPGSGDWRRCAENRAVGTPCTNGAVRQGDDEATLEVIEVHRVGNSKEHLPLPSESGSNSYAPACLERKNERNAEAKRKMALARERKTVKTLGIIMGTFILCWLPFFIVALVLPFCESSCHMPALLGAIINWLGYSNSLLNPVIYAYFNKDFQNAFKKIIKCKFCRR

[2] = target: T2, 5-hydroxytryptamine receptor 1A (Rattus norvegicus) (UniProt P19327); format: tissue-based; conditions: Hippocampus
T2 sequence (whole entry): T1 sequence (P19327 whole entry)

[3] = target: T1, 5-hydroxytryptamine receptor 1A; test: biochemical
Description: Inhibition of binding of [125I]8-OH-PIPAT ligand to 5-hydroxytryptamine 1A receptor of rat hippocampal homogenates

[4] = target: T1, 5-hydroxytryptamine receptor 1A; format: tissue-based, Hippocampus; remark: listed apart in the source

Kd [1]: 0.3 nM
SMILES: COc1ccccc1N1CCN(CCN(C(=O)c2ccc(I)cc2)c2ccccn2)CC1

Bmax (fM (mg of protein)-1) [2]: 310 | Ki [3]: 0.38 nM
SMILES: CCCN(C/C=C/I)C1CCc2cccc(O)c2C1 (centres undefined)

Kd [4]: 0.4 nM
SMILES: COc1ccccc1N1CCN(CCCCNC(=O)C23C[C@H]4C[C@@H](C2)C[C@@H](C3)C4)CC1
